# Where two headings read alike, the source gives them in different places.
# What was measured:
# MDA-MB-231 cells [1] = details: MDA-MB-231 monolayer
# Procedure: (§1) FIGS. 4A-4D show the metabolic flux analysis results in MCF7 cells, FIGS. 5A-5D show the metabolic flux analysis results in MDA-MB-231 cells, and FIGS. 6A-6D show the metabolic flux analysis results in MDA-MB-468 cells.
# (§2) In addition to metabolic flux analysis, glycolytic function was analyzed at different concentrations of MTDR. This included extracellular acidification rate (ECAR) measurements, glycolysis, glycolytic capacity, and glycolytic reserve. FIGS. 7A-7D show the results of glycolytic function in MCF7 cells, including ECAR, glycolysis, glycolytic capacity, and glycolytic reserve, respectively. FIGS. 8A-8D show the results of glycolytic function in MDA-MB-231 cells, including ECAR, glycolysis, glycolytic capacity, and glycolytic reserve, respectively. FIGS. 9A-9D show the results of glycolytic function in MDA-MB-468 cells, including ECAR, glycolysis, glycolytic capacity, and glycolytic reserve, respectively.
# (§3) Metabolic Flux Analysis: Extracellular acidification rates and oxygen consumption rates were analyzed using the Seahorse XFe96 analyzer (Agilent/Seahorse Bioscience, USA). Cells were maintained in DMEM supplemented with 10% FBS (fetal bovine serum), 2 mM GlutaMAX, and 1% Pen-Strep. Forty-thousand breast cancer cells were seeded per well, into XFe96-well cell culture plates, and incubated at 37° C. in a 5% CO2 humidified atmosphere. After 24-48 hours, MCF7 cells were washed in pre-warmed XF assay media, as previously described. ECAR and OCR measurements were normalized for cell protein content, by the SRB colorimetric assay. Data sets were analyzed using XFe96 software and Excel software.
# MDA-MB-468 cells [2] = details: MDA-MB-468 monolayer
# Procedure: as §1, §2, §3
# MCF7 cells [3] = assay: 3D-mammosphere formation assay, MCF7; assay type: cell-based, Human
# Text: (§4) In order to assess the effects of MTDR on CSC propagation, the mammosphere assay was used as a functional readout of “stemness” and 3D anchorage-independent growth. As CSCs are highly-resistant to many types of cell stress, they can undergo anchorage-independent propagation, under low-attachment conditions. […] These “mammospheres” are highly enriched in CSCs and progenitor-like cells, and highly resemble the morula stage of embryonic development, a solid ball of cells without a hollow lumen. Under these culture conditions of non-attachment, the majority of epithelioid cancer cells die, via an unusual form of apoptosis, known as anoikis.
# (§5) As a consequence, the growth of 3D spheroids provides functional culture conditions to select for a population of epithelioid CSCs, with EMT properties. As such this provides an ideal assay for identifying small molecules that can target the anchorage-independent growth of CSCs.
# (§6) 3D-Mammosphere Formation Assay: A single cell suspension was prepared using enzymatic (1× Trypsin-EDTA, Sigma Aldrich, cat. #T3924), and manual disaggregation (25 gauge needle). Five thousand cells were plated with in mammosphere medium (DMEM-F12/B27/20 ng/ml EGF/PenStrep), under non-adherent conditions, in six wells plates coated with 2-hydroxyethylmethacrylate (poly-HEMA, Sigma, cat. #P3932). […]
# MDA-MB-231 cells [4] = details: read-out: IC-50, cell viability; MDA-MB-231 monolayer; Hoechst 33342; 1 nM to 1 μM; FIG. 10
# Procedure: (§7) A Hoechst-based viability assay was used to characterize the selectivity of MTDR for the preferential targeting of cancer cells. Briefly, MCF7, MDA-MB-231 and MDA-MB-468 cell monolayers were treated with MTDR, at concentrations ranging from 1 nM to 1 μM, for a period of one day. Cell viability was assessed using Hoechst 33342, a nuclear dye that stains DNA in live cells. The viability of normal human fibroblasts (hTERT-BJ1) treated with MTDR was also assessed in parallel. Quantitation was performed with a plate-reader.
# (§8) MCF7, MDA-MB-231 and MDA-MB-468 cell monolayers were treated with MTDR for a period of 72 hours, and viability was assessed using Hoechst 33342, a nuclear dye that stains DNA in live cells. Effects of MTDR on the viability in normal human fibroblasts (hTERT-BJ1) were assessed in parallel.
# MCF7 cells [5] = details: read-out: IC-50, cell viability; MCF7 monolayer; Hoechst 33342; 1 nM to 1 μM; FIG. 10
# Procedure: as §7, §8
# [6] = tested on: normal human fibroblasts (hTERT-BJ1); details: for IC50: hTERT-BJ1, Hoechst 33342
# Procedure: as §7, §8
# MDA-MB-468 cells [7] = details: read-out: IC-50, cell viability; MDA-MB-468 monolayer; Hoechst 33342; 1 nM to 1 μM; FIG. 10
# Procedure: as §7, §8
# MCF7 cells [8] = assay: Metabolic flux analysis (Seahorse XFe96, OCR/ECAR), MCF7; assay type: cell-based, Human; details: for ECAR levels / basal and maximal OCR, ATP production: adherent MCF7; for basal and maximal OCR, ATP production: 16 hours, versus vehicle-alone control
# Procedure: as §1, §2
# To examine the effects of HITC and DDI on mitochondrial respiration and aerobic glycolysis, adherent MCF7 were treated with each compound, and then OCR and ECAR were measured. […] After treatment, the mitochondrial oxygen consumption rate (OCR) was measured using the Seahorse XFe96 analyzer. Data is expressed as percentage of OCR versus control. All data was normalized for cell number. Statistical analysis was conducted using one-way ANOVA.
# as §3
# MDA-MB-231 cells [9] = details: MDA-MB-231 mammosphere formation
# Text: as §4, §5, §6
# MDA-MB-468 cells [10] = details: read-out: IC-50, 3D sphere formation
# Text: as §4, §5, §6
# [11] = in vivo; cited from earlier work
smiles,measurement,setting,value
"CN1C(=CC=CC=CC2=[N+](Cc3ccc(CCl)cc3)c3ccccc3C2(C)C)C(C)(C)c2ccccc21.[Cl-] [MTDR, 1-{4-[(chloromethyl)phenyl]methyl}-3,3-dimethyl-2-[5-(1,3,3-trimethyl-1,3-dihydro-2H-indol-2-ylidene)penta-1,3-dien-1-yl]-3H-indolium chloride]",concentration from which near complete inhibition of mitochondrial function and ATP production,MDA-MB-231 cells [1]; OCR,≥ 500 nM
same,concentration from which mild-to-moderate inhibition of glycolysis,MDA-MB-231 cells [1]; no significant effect up to 100 nM,≥ 500 nM
same,concentration from which near complete inhibition of mitochondrial function and ATP production,MDA-MB-468 cells [2]; OCR,≥ 500 nM
same,effect on glycolysis (ECAR),MDA-MB-468 cells [2]; up to 1 μM,no effect on glycolysis
same,IC50,"MCF7 cells [3]; MCF7, MTDR 1 nM to 1,000 nM, 5 days, read-out: IC-50, 3D anchorage-independent growth (mammosphere formation)",< 100 nM
same,IC50,MDA-MB-231 cells [4],399 nM
same,IC50,MCF7 cells [5],90.7 nM
same,IC50,"[6]; read-out: IC-50, cell viability, 1 nM to 1 μM, FIG. 10",468 nM
same,IC50,"[6]; read-out: IC-50, normal cell viability, 72 hours",1000 nM
same,potency and selectivity for breast cancer cells relative to normal fibroblasts,"[6]; viability, 72 hours",10 times
same,IC50,MDA-MB-468 cells [7],432 nM
same,concentration from which near complete inhibition of mitochondrial function and ATP production,"MCF7 cells [8]; MCF7 monolayer, OCR",≥ 500 nM
same,effect on glycolysis (ECAR),"MCF7 cells [8]; MCF7 monolayer, up to 1 μM",no effect on glycolysis
same,concentrations inhibiting anchorage-independent growth,MDA-MB-231 cells [9],above 100 nM
same,IC50,MDA-MB-468 cells [10],~50 nM
CN1\C(=C/C=C/C=C/C=C/C2=[N+](C)c3ccccc3C2(C)C)C(C)(C)c2ccccc21 [HITC],ECAR levels,MCF7 cells [8],"increased significantly, at 500 and 1000 nM"
same,"basal and maximal OCR, ATP production",MCF7 cells [8],significantly inhibited
CCN1/C(=C/C=C/C=C/c2ccc3ccccc3[n+]2CC)C=Cc2ccccc21 [DDI],ECAR levels,MCF7 cells [8],did not affect
same,"basal and maximal OCR, ATP production",MCF7 cells [8],did not affect
CCCN1/C(=C/C=C2\CCCC(/C=C/C3=[N+](CCC)c4ccccc4C3(C)C)=C2Cl)C(C)(C)c2ccccc21 [IR-780],half-life in serum,[11],minutes to hour
same,concentrations with significant inhibition of CSC propagation (3D-mammosphere formation),"MCF7 cells [3]; non-adherent MCF7, 1, 50, 100, 500, 1000 nM, five days",not effective

# — US20220249438A1, “CARBOCYANINE COMPOUNDS FOR TARGETING MITOCHONDRIA AND ERADICATING CANCER STEM CELLS” (LUNELLA BIOTECH, INC., priority 2019, published 2022)
